The values that follow come from patent US20040121965A1, “Method of treating resistant tumors” (Wyeth Holdings Corporation, priority 2002, published 2004).

In one experiment the test system is KB-8-5 (MDR1+). The experiment can be described thus: Cell survival assay (SRB), KB-8-5 (MDR1+). To be noted: for IC50: Homo sapiens, MDR1, read-out: In vitro IC50 (nM) KB85.
The next experiment deals with KB-3-1. The experiment can be described thus: Cell survival assay (SRB), KB-3-1. The format is cell-based, human. The note with it: Homo sapiens, KB 3-1, KB-3-1 cells (paclitaxel-sensitive parent); read-out: In vitro IC50 (nM) KB-3-1. An excerpt:
Cells lines with previously known mechanisms of resistance. […] Res. 8: 207-218,1996); KB-3-1 (parental derived from an epidermoid carcinoma), KB-8.5, KB-V1 (Akiyama S-I, Fojo A, Hanover J A, Pastan I, Gottesman M M. Isolation and genetic characterization of human KB cell lines resistant to multiple drugs. Somatic Cell Mol. Gen., 11: 117-126,1985; Shen D-W, Cardarelli C, Hwang J, Cornwell M, Richert N, Ishii S, Pastan I, Gottesman MM. […] J. Biol. Chem., 261: 7762-7770, 1986); and HL-60 (parental derived from human leukemia) and HL60/AR (McGrath T., Center M. S. Adriamycin resistance in HL60 cells in the absence of detectable P-glycoprotein. Biochem. Res. Commun., 145:1171-1176,1987); A549 and A549.EpoB40 (He L., Yang C.-P.H., Horwitz S. B. Mutations in p-tubulin map to domains involved in regulation of microtubule stability in epothilone-resistant cell lines. Molecular Cancer Therapeutics. 1: 3-10, 2001). HCT-15 human colon carcinoma and DLD-1 human colon carcinoma are obtained from American Tissue Culture Collection. The MX-1W carcinoma is a Wyeth variant orginally obtained as MX-1 breast carcinoma from the National Cancer Institute. Cell lines selected for resistance to Representative Example 129. KB-3-1 cells are selected for resistance to Example 129 by chronically exposing cells to increasing concentrations of Example 129.
2.2. Cell Survival Assay: Standard Pharmacological Test Procedure. The concentration of candidate inhibitor required to inhibit 50% of cell growth (IC50) is done according to previously reported methods. […] Compounds are serially diluted into media as 2× stocks and 100 μl added to cells in duplicate. Compounds are incubated with cells for 3 days. At the end of the incubation period the sulforhodamine B (SRB) assay, which measures protein content as an assessment of cell survival, is performed as described previously (Skehan P, Storeng R, Scudiero D, Monks A, McMahon J, Vistica D, Warren J T, Bokesch H, Kenney S, Boyd MR. New calorimetric cytotoxicity assay for anticancer-drug screening. J Natl Cancer Inst 1990 Jul 4;82(13):1107-12) with some modification as follows. For KB-3-1 cells with 20% FCS, media is gently decanted and replaced with 200 μl of serum-free media mixed with cold 50% TCA for a final concentration of 10% TCA. The plates are incubated for 1 hr at 4° C., followed by washing 5 times in cold distilled water, then air dried overnight. The fixed cells are stained for 10 min with 80 μl of 0.04% SRB solution prepared in 1% glacial acetic acid. Stain is discarded and plates washed 5 times in 1% glacial acetic acid, then air-dried until completely dry. Stained cell product is dissolved in 150 μl of 10 mM Trizma Base and placed on a shaker for 20 minutes until fully dissolved. Absorbance is read on a Victor V multi-label plate reader (Perkin Elmer, Gaithersburg, Md.).

The next experiment relates to KB-V1 (MDR1++). The experiment can be described thus: Cell survival assay (SRB), KB-V1 (MDR1++). To be noted: for IC50: Homo sapiens.
[1] abbreviates: read-out: In vitro IC50 (nM) KBV1.

Like-named read-outs stand apart in the source and are kept apart here.

The term IC50 denotes the concentration that gives 50% inhibition. For the molecule `CN[C@H](C(=O)N[C@@H](CCc1ccccc1)C(=O)N(C)[C@H](/C=C(\C)C(=O)O)C(C)C)C(C)(C)c1ccccc1` [Example 89, (E ,4S)-2,5-Dimethyl-4-[methyl((2S)-2-{[(2S)-3-methyl-2-(methylamino)-3-phenylbutanoyl]amino}4-phenylbutanoyl)amino]-2-hexenoic Acid], in the experiment on KB-8-5 (MDR1+), the “Ratio KB85/KB” value is 1.5. In addition, the figures for the 50% inhibitory concentration (IC50) in the experiment with KB-8-5 (MDR1+), in the experiment on KB-3-1 and in the experiment on KB-V1 (MDR1++) (setting [1]) were 274 nM, 180 nM and no less than 3000 nM, respectively. Also, the “Ratio KBV1/KB” value in the experiment on KB-V1 (MDR1++) turned out to be 16.6.
Take `CNC(C(=O)N[C@H](C(=O)N(C)[C@H](/C=C(\C)C(=O)O)C(C)C)C(C)(C)C)C1(c2ccccc2)CC1` (stereo in doubt) [Example 142, (2E,4S)-2,5-dimethyl-4-(methyl{3-methyl-N-[(2S)-2-(methylamino)-2-(1-phenylcyclopropyl)acetyl]-L-valyl}amino)hex-2-enoic Acid]: the “Ratio KB85/KB” value in the experiment on KB-8-5 (MDR1+) amounted to 2.2. Also, the results for the half-maximal inhibitory concentration (IC50) with KB-8-5 (MDR1+), in the experiment on KB-3-1 and with KB-V1 (MDR1++) (setting [1]) were 513 nM, 227 nM and greater than 3000 nM, respectively. Moreover, the “Ratio KBV1/KB” value with KB-V1 (MDR1++) came to 13.2.
On to `CN[C@H](C(=O)N[C@H](C(=O)N(C)[C@H](/C=C(\C)C(=O)O)C(C)C)C(C)(C)C)C(C)(C)c1cccc(C(C)=O)c1` [Example 155, 3-acetyl-N,β,β-trimethyl-L-phenylalanyl-N^1-[(1S,2E)-3-carboxy-1-isopropylbut-2-enyl]-N^1,3-dimethyl-L-valinamide], for which, in the experiment on KB-8-5 (MDR1+), the “Ratio KB85/KB” value is on record as 3.2. The IC50 in the experiment on KB-8-5 (MDR1+) came out at 5.8 nM; in the experiment with KB-3-1 it was 1.8 nM; in the experiment on KB-V1 (MDR1++) (setting [1]), 370 nM. Moreover, the “Ratio KBV1/KB” value in the experiment on KB-V1 (MDR1++) amounted to 206.
Turning to `CN[C@@H](C(=O)N[C@H](C(=O)N(C)[C@H](/C=C(\C)C(=O)O)C(C)C)C(C)(C)C)C(C)(C)c1cccc(C)c1` [Example 9, N,β,β,3-Tetramethyl-D-phenylalanyl-N^1-[(1S,2E)-3-carboxy-1-isopropyl-2-butenyl]-N^1,3-dimethyl-L-valinamide], the “Ratio KB85/KB” value in the experiment on KB-8-5 (MDR1+) was 2.5. Further, the 50% inhibitory concentration (IC50) in the experiment on KB-8-5 (MDR1+) came to 19.9 nM; in the experiment with KB-3-1, 7.9 nM; in the experiment with KB-V1 (MDR1++) (setting [1]), 447 nM. For the same molecule, the “Ratio KBV1/KB” value with KB-V1 (MDR1++) is 56.5.
In the case of `CN[C@H](C(=O)N[C@H](C(=O)N(C)[C@H](/C=C(\C)C(=O)O)C(C)C)C(C)(C)SC)C(C)(C)c1ccc(OC)cc1` [Example 84, N,O,β,β-tetramethyl-L-tyrosyl-N^1-[(1S,2E)-3-carboxy-1-isopropyl-2-butenyl]-N^1-methyl-3-(methylsulfanyl)-L-valinamide], the “Ratio KB85/KB” value in the experiment with KB-8-5 (MDR1+) is listed as 3.2. The results for the IC50 with KB-8-5 (MDR1+), with KB-3-1 and with KB-V1 (MDR1++) (setting [1]) were 5.1 nM, 1.6 nM and 302 nM, respectively. Further, in the experiment on KB-V1 (MDR1++), the “Ratio KBV1/KB” value worked out at 188.7.
As for `CN[C@H](C(=O)N[C@H](C(=O)N(C)[C@H](/C=C(\C)C(=O)O)C(C)C)C(C)(C)C)C(C)(C)c1csc2ccccc12` [Example 26, 3-(1-Benzothien-3-yl)-N-methylvalyl-N^1-[(1S,2E)-3-carboxy-1-isopropyl-2-butenyl]-N^1,3-dimethyl-L-valinamide], the “Ratio KB85/KB” value in the experiment with KB-8-5 (MDR1+) is on record as 2.0. In addition, the IC50 came to 9.1 nM in the experiment with KB-8-5 (MDR1+), 4.5 nM with KB-3-1 and 417 nM in the experiment with KB-V1 (MDR1++) (setting [1]). In the experiment with KB-V1 (MDR1++), the “Ratio KBV1/KB” value came out at 92.6.
On to `CN[C@H](C(=O)N[C@H](C(=O)N(C)[C@H](/C=C(\C)C(=O)O)C(C)C)C(C)(C)C)C(C)(C)c1cc(C)cc(C)c1` [Example 17, N,β,β,3,5-Pentamethyl-L-phenylalanyl-N^1-[(1S,2E)-3-carboxy-1-isopropyl-2-butenyl]-N^1,3-dimethyl-L-valinamide], for which the values for the IC50 with KB-8-5 (MDR1+), with KB-3-1 and with KB-V1 (MDR1++) (setting [1]) were 1 nM, 1 nM and 44 nM, respectively. Besides, the “Ratio KBV1/KB” value in the experiment with KB-V1 (MDR1++) is 75.7.
As for `CCCCCCCCOC(=O)/C(C)=C/[C@H](C(C)C)N(C)C(=O)[C@@H](NC(=O)[C@@H](NC)C(C)(C)c1ccccc1)C(C)(C)C` [Example 116, N,β,β-trimethyl-L-phenylalanyl-N^1-[(1S,2E)-1-isopropyl-3-methyl-4-(octyloxy)-4-oxobut-2-enyl]-N^1,3-dimethyl-L-valinamide], the “Ratio KB85/KB” value with KB-8-5 (MDR1+) came to 10.9. Also, the IC50 in the experiment on KB-8-5 (MDR1+) is 1630 nM; in the experiment on KB-3-1, 150 nM; with KB-V1 (MDR1++) (read-out: In vitro IC50 KBV1) it was greater than 3000 nM.
As for `CCC[C@H](NC(=O)[C@@H](NC)C(C)(C)c1ccccc1)C(=O)N(C)[C@H](/C=C(\C)C(=O)O)C(C)C.O=C(O)C(F)(F)F` [Example 97, N,β,β-trimethyl-L-phenylalanyl-N^1-[(1S,2E)-3-carboxy-1-isopropylbut-2-enyl]-N^1-methyl-L-norvalinamide Trifluoroacetic Acid], in the experiment on KB-8-5 (MDR1+), the “Ratio KB85/KB” value is recorded as 1.3. Further, the IC50 in the experiment on KB-8-5 (MDR1+) came out at 19 nM; with KB-3-1 it was 15 nM; in the experiment with KB-V1 (MDR1++) (setting [1]), 575 nM. The “Ratio KBV1/KB” value with KB-V1 (MDR1++) is 38.3.
As to `CCOC(=O)/C(C)=C/[C@H](C(C)C)N(C)C(=O)[C@@H](NC(=O)[C@@H](NC)C(C)(C)c1ccc(C)c(C)c1)C(C)(C)C` [Example 13a, N,β, β,3,4-Pentamethyl-L-phenylalanyl-N^1-[(1S,2E)4-ethoxy-1-isopropyl-3-methyl-4-oxo-2-butenyl]-N^1,3-dimethyl-L-valinamide], the “Ratio KB85/KB” value with KB-8-5 (MDR1+) worked out at 24.0. Besides, the IC50 with KB-8-5 (MDR1+) is 219 nM; in the experiment with KB-3-1 it was 9.1 nM; in the experiment on KB-V1 (MDR1++) (setting [1]), 1740 nM. The “Ratio KBV1/KB” value in the experiment with KB-V1 (MDR1++) was determined as 191.0.
Take `CN[C@@H](C(=O)N[C@H](C(=O)N(C)[C@H](/C=C(\C)C(=O)O)C(C)C)C(C)(C)C)C(C)(C)c1cc(C(F)(F)F)cc(C(F)(F)F)c1` [Example 67, N,β,β-trimethyl-3,5-bis(trifluoromethyl)-D-phenylalanyl-N^1-[(1S,2E)-3-carboxy-1-isopropylbut-2-enyl]-N^1,3-dimethyl-L-valinamide]: the “Ratio KB85/KB” value with KB-8-5 (MDR1+) was determined as 1.1. Moreover, the IC50 was 186 nM with KB-8-5 (MDR1+), 170 nM in the experiment with KB-3-1 and greater than 3000 nM in the experiment on KB-V1 (MDR1++) (read-out: In vitro IC50 KBV1).
`CN[C@@H](C(=O)N[C@H](C(=O)N(C)[C@H](/C=C(\C)C(=O)O)C(C)C)C(C)(C)C)C(C)(C)c1ccccc1C` [Example 36, N,β,β,2-Tetramethyl-D-phenylalanyl-N^1-[(1S,2E)-3-carboxy-1-isopropyl-2-butenyl]-N^1,3-dimethyl-L-valinamide]: the “Ratio KB85/KB” value in the experiment on KB-8-5 (MDR1+) came out at 2.3. The IC50 with KB-8-5 (MDR1+) is 13.8 nM; in the experiment with KB-3-1 it was 6 nM; in the experiment on KB-V1 (MDR1++) (setting [1]), 501 nM. In addition, the “Ratio KBV1/KB” value in the experiment with KB-V1 (MDR1++) was 83.5.
`CN[C@H](C(=O)N[C@H](C(=O)N(C)[C@H](/C=C(\C)C(=O)O)C(C)C)C(C)(C)C)C(C)(C)C` [Example 140, N,3-dimethyl-L-valyl-N^1-[(1S,2E)-3-carboxy-1-isopropyl-2-butenyl]-N^1,3-dimethyl-L-valinamide]: in the experiment with KB-8-5 (MDR1+), the “Ratio KB85/KB” value is 1.6. Further, the half-maximal inhibitory concentration (IC50) in the experiment with KB-8-5 (MDR1+) was 181 nM; in the experiment with KB-3-1 it was 114 nM; in the experiment with KB-V1 (MDR1++) (setting [1]), no less than 3000 nM. Also, in the experiment with KB-V1 (MDR1++), the “Ratio KBV1/KB” value is 26.4.
The matching figures for `CN[C@H](C(=O)N[C@H](C(=O)N[C@H](/C=C(\C)C(=O)O)CC(C)C)C(C)(C)C)C(C)(C)c1ccccc1.O=C(O)C(F)(F)F` [Example 93, N,β,β-trimethyl-L-phenylalanyl-N^1-[(1S,2E)-3-carboxy-1-isobutylbut-2-enyl]-3-methyl-L-valinamide Trifluoroacetic Acid]: 4.0, 339 nM, 85.2 nM, no less than 3000 nM and 35.2.
